Experiments:
HUVECs = assay: Production of thrombin on the surfaces of HUVECs; format: cell-based, human; conditions: HUVECs with FVa, FXa, prothrombin
Procedure: Thrombin production by HUVECs was quantified as previously described[63],[68]. Briefly, HUVECs were pre-incubated in 300 μL of a solution containing JJ1 in 50 mM Tris-HCl buffer, 100 pM FVa, and 1 nM FXa for 10 min, followed by the addition of prothrombin to a final concentration of 1 μM. After 10 min, duplicate samples (10 μL each) were transferred into a 96-well plate containing 40 μL 0.5 M EDTA in TBS per well to terminate the prothrombin activation. Activated prothrombin was determined by the measurement of the rate of hydrolysis of S-2238 (a thrombin substrate) at 405 nm. Standard curves were prepared with known amounts of purified thrombin.

Protein Ca = target: T1, Protein Ca (Homo sapiens, UniProt P04070); assay: Chromogenic substrate assay, Ki (Dixon); format: biochemical
T1 construct: thrombin versus trypsin, factor Xa, elastase, plasmin, protein Ca, streptokinase, tPA, and urokinase
T1 sequence (P04070 212-450 limits assumed): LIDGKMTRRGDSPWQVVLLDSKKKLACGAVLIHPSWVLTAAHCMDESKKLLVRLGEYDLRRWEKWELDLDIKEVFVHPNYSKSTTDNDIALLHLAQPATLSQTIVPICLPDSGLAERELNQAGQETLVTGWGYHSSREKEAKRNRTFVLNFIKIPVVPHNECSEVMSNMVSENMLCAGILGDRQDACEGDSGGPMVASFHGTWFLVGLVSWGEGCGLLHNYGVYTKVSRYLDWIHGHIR
T1 sequence (P04070 43-197 limits assumed): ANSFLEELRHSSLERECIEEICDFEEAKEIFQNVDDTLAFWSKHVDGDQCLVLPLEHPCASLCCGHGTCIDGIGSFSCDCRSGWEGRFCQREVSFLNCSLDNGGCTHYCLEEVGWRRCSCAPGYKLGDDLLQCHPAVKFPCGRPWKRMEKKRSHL

human plasma [1] = assay: In vitro PT clotting time; format: biochemical; conditions: at the maximum antithrombotic dose
human α-thrombin = target: T2, human α-thrombin (Homo sapiens, UniProt P00734); assay: Chromogenic substrate assay, Ki (Dixon); format: biochemical
T2 construct: purchased Haematologic Technologies (Essex Junction, VT)

clot-bound thrombin = target: T3, clot-bound thrombin (Homo sapiens, UniProt P00734); assay: Clot-bound thrombin assay, FPA generation (ELISA); format: biochemical; conditions: 60 min of incubation, FPA by ELISA; read-out: IC50, inhibition of FPA generation by clot-bound thrombin
T3 construct: Fibrin clots were formed by recalcification of citrated plasma and washed extensively; from tissue; host or cells: fibrin clots from recalcified citrated plasma
Procedure: Fibrin clots were formed by recalcification of citrated plasma and washed extensively to remove any FPA trapped within the clots. Plasma was then placed over the washed clots and FPA generation was determined. There was a time-dependent generation of FPA in plasma that was not caused by the release of FPA trapped within the washed clots, because the addition of buffer over the clots produced only a minimal amount of FPA (5.25 ± 0.35 nM at 60 min) (Fig. 8). The endogenous FPA level was 5.05 ± 0.31 nM in these studies.
The generation of FPA in plasma with or without JJ1 was quantified in accordance with the manufacturer’s instructions by using a commercially available ELISA kit (LSBio, Seattle, WA). Values were measured using an ELISA plate reader (Tecan, Austria GmbH, Austria).

human plasma [2] = assay: In vitro aPTT clotting time; format: biochemical; conditions: for aPTT: in vitro
Procedure: The aPTT and PT were determined using a Thrombotimer (Behnk Elektronik, Norderstedt, Germany) in accordance with the manufacturer’s instructions and as previously described. Briefly, citrated normal human plasma (90 μL) was mixed with 10 μL JJ1 and incubated for 1 min at 37 °C. Subsequently, the aPTT assay reagent (100 μL) was added, the plasma sample was incubated for an additional 1 min at 37 °C, 20 mM CaCl2 (100 μL) was added, and the clotting times were recorded. For the PT assays, citrated normal human plasma (90 μL) was mixed with 10 μL JJ1 stock solution and was incubated for 1 min at 37 °C. The PT assay reagent (200 μL), which had been pre-incubated for 10 min at 37 °C, was subsequently added and the clotting time was recorded. The PT results were expressed in seconds and as International Normalized Ratios (INR): INR = (PT sample/PT control)^ISI, where ISI = international sensitivity index. The aPTT results were also expressed in seconds. All experimental protocols (KNUH 2012-01-010) were approved by the Institutional Review Board of Kyungpook National University Hospitals (Daegu, Republic of Korea).

Factor Xa = target: T4, Factor Xa (Homo sapiens, UniProt P00742); assay: Chromogenic substrate assay, Ki (Dixon); format: biochemical
T4 construct: thrombin versus trypsin, factor Xa, elastase, plasmin, protein Ca, streptokinase, tPA, and urokinase; purchased Haematologic Technologies (Essex Junction, VT)
T4 sequence (P00742 235-488 limits assumed): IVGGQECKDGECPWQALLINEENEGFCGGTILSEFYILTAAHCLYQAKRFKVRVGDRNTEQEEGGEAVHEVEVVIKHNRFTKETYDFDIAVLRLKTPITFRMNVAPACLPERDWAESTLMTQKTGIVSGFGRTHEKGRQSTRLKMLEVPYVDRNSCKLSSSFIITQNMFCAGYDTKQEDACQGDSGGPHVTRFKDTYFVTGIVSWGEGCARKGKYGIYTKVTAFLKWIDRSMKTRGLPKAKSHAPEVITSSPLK
T4 sequence (P00742 41-179 limits assumed): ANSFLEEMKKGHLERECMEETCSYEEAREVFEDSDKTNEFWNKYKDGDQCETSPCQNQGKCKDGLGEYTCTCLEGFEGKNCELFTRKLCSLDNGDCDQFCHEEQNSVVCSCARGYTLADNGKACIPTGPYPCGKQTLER

Factor XIa = target: T5, Factor XIa (Homo sapiens, UniProt P03951); assay: Chromogenic substrate assay, Ki (Dixon); format: biochemical
T5 construct: Factor XIa
T5 sequence (P03951 388-625 limits assumed): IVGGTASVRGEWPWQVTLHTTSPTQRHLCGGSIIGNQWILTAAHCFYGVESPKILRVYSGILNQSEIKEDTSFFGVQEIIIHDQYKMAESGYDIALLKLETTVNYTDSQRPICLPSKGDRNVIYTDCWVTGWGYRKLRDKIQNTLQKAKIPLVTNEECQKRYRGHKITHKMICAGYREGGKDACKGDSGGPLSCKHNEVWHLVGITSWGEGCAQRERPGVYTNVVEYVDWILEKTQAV
T5 sequence (P03951 19-387 limits assumed): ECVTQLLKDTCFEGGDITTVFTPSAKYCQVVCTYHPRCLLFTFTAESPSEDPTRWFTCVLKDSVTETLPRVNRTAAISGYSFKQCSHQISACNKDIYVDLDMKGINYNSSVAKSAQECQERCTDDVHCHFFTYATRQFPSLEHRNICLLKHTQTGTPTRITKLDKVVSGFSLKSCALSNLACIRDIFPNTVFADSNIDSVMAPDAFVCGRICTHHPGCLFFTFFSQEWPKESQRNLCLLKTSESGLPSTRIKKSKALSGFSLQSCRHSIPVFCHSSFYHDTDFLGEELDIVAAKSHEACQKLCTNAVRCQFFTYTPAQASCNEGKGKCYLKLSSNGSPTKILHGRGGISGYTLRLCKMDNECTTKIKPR
Procedure: (§1) Chromogenic substrate assays were performed using a Labsystems IEMS (Cergy Pontoise, France) microtiter plate reader. K i values were calculated according to the method of Dixon[65]. In each assay, the compound was tested at a minimum of seven concentrations, in duplicate, to obtain an inhibition curve. The following general procedures were adopted for each assay. In a 96-well microtiter plate, 25 μL of inhibitor solution or buffer was added to 50 μL of substrate. The enzyme solution (25 μL) was added just before the plate was placed in the microtiter plate reader for 1 h at 37 °C. The hydrolysis of the substrate yields p-nitroaniline, which was continuously monitored spectrophotometrically at 405 nm. The maximal initial reaction rates were calculated and expressed as millioptical density per minute.

Factor IXa = target: T6, Factor IXa (Homo sapiens, UniProt P00740); assay: Chromogenic substrate assay, Ki (Dixon); format: biochemical
T6 construct: Factor IXa
T6 sequence (P00740 227-461 limits assumed): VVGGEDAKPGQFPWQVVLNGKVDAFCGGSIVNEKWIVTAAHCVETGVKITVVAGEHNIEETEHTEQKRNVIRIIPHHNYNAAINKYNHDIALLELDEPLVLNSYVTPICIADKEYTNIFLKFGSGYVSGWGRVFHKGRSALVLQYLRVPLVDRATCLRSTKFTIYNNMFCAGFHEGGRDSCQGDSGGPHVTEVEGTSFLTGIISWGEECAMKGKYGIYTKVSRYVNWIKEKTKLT
T6 sequence (P00740 47-191 limits assumed): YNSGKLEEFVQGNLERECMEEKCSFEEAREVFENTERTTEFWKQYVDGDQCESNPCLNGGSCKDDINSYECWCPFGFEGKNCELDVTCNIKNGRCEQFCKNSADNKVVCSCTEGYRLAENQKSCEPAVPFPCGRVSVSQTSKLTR
Procedure: as §1

[3] = tested on: thrombin-catalyzed fibrin polymerization in human plasma; assay: Thrombin-catalyzed fibrin polymerization; format: biochemical; conditions: absorbance at 360 nm
Procedure: Thrombin-catalyzed polymerization was determined every 6 s for 20 min by monitoring the turbidity of the solution at 360 nm at ambient temperature by using a spectrophotometer (TECAN, Männedorf, Switzerland). Control plasma and plasma incubated with JJ1 were diluted three-fold in […] and clotted with thrombin (final concentration: 0.5 U/mL). The maximum polymerization rate (Vmax, ΔmOD/min) from each absorbance curve was recorded.

[4] = Organ injury markers (biochemical safety parameters); format: in vivo, C57BL/6 mice; design: BUN: unit not given here
Procedure: The safety of JJ1 is another promising feature. Animal safety markers such as aspartate transaminase (AST) and alanine transaminase (ALT) (markers of hepatic injury) and creatinine and blood urea nitrogen (BUN) (markers of renal injury) were assessed with blood samples obtained at 48 h after JJ1 injection. […] Serum levels of AST, ALT, BUN, and creatinine were measured using commercial assay kits (Pointe Scientific, Linclon Park, MI).

[5] = male C57BL/6 mice, 3.06 μg/mouse, 48 h after injection

## c1ccc2c(NC3CCCC3)nc(Nc3ccncc3)nc2c1 [JJ1]
HUVECs
  Production of thrombin: inhibited the production of thrombin in a dose-dependent manner
Protein Ca; K i Protein Ca/K i α-thrombin
  Selectivity ratio: >10,000
Protein Ca; Protein Ca
  Ki: > 250 µM
Human plasma [1]
  Prolongation of PT: 2.22 fold
Human α-thrombin; K i enzyme/K i α-thrombin
  Selectivity ratio: 1
Human α-thrombin; mean ± SD (n = 5)
  Ki: 19 ± 0.5 nM
clot-bound thrombin
  IC50: 2450 nM
Human plasma [2]
  Concentration that doubled the clotting time, aPTT assay: 1.66 µM
Human plasma [2]; 0.05 μM
  aPTT: 23.5 ± 0.4 s
Human plasma [2]; 0.1 μM
  aPTT: 23.3 ± 0.2 s
Human plasma [2]; 0.2 μM
  aPTT: 24.2 ± 0.4 s
Human plasma [2]; 0.5 μM
  aPTT: 32.4 ± 0.6 s
Human plasma [2]; 1.0 μM
  aPTT: 41.3 ± 0.4 s
Human plasma [2]; 2.0 μM
  aPTT: 50.4 ± 0.6 s
Human plasma [2]; 5.0 μM
  aPTT: 51.6 ± 0.4 s
Factor Xa; Factor Xa
  Ki: > 250 µM
Factor Xa; K i Factor Xa/K i α-thrombin
  Selectivity ratio: >10,000
Factor XIa; Factor XIa
  Ki: > 250 µM
Factor XIa; K i Factor XIa/K i α-thrombin
  Selectivity ratio: >10,000
Factor IXa; Factor IXa
  Ki: > 250 µM
Factor IXa; K i Factor IXa/K i α-thrombin
  Selectivity ratio: >10,000
[3]
  Maximal rate of fibrin polymerization: significantly decreased the maximal rate of fibrin polymerization
[4]; after 2 days
  Plasma levels of AST, ALT, BUN, and creatinine compared to DMSO-treated animals: no significant differences
[4]; [5]
  ALT: 7.5 ± 0.63 IU/L
  AST: 15.1 ± 1.29 IU/L
  BUN: 17.1 ± 1.31
  Creatinine: 0.139 ± 0.012 mg/dL
